This note sets out measurements from article PMC5218480 (PLoS ONE, 2017).

This assay concerns MV-4-11 cells. As to the kind of experiment: Gene expression microarray analysis (Affymetrix PrimeView) and GSEA. To be noted: MV-4-11 cells, 48 hours. Set-up: RFU PODN (11730768_x_at) / Fold change /veh PODN (11730768_x_at) / RFU LINC00158 (11744669_a_at) / Fold change /veh LINC00158 (11744669_a_at) / RFU DUSP10 (11751237_a_at) / Fold change /veh DUSP10 (11751237_a_at) / RFU ID3 (11757404_x_at) / Fold change /veh ID3 (11757404_x_at) / RFU PLEKHG5 (11737974_s_at) / Fold change /veh PLEKHG5 (11737974_s_at) / RFU LRRC4B (11730491_at) / Fold change /veh LRRC4B (11730491_at) / RFU GIMAP4 (11747438_a_at) / Fold change /veh GIMAP4 (11747438_a_at) / RFU KRT8 (11758183_x_at) / Fold change /veh KRT8 (11758183_x_at) / RFU CNN1 (11734310_a_at) / Fold change /veh CNN1 (11734310_a_at) / RFU VPS37D (11726825_at) / Fold change /veh VPS37D (11726825_at) / RFU C10orf10 (11716522_x_at) / Fold change /veh C10orf10 (11716522_x_at) / RFU KIR2DL2 /// KIR2DL4 /// KIR2DL5A /// KIR2DL5B /// KIR2DS1 /// KIR2DS2 /// KIR2DS3 /// KIR2DS4 /// KIR3DL3 /// KIR3DL3 /// KIR3DS1 (11738374_at) / Fold change /veh KIR2DL2 /// KIR2DL4 /// KIR2DL5A /// KIR2DL5B /// KIR2DS1 /// KIR2DS2 /// KIR2DS3 /// KIR2DS4 /// KIR3DL3 /// KIR3DL3 /// KIR3DS1 (11738374_at) / RFU C1QL1 (11718748_at) / Fold change /veh C1QL1 (11718748_at) / RFU TMPRSS4 (11747572_a_at) / Fold change /veh TMPRSS4 (11747572_a_at) / RFU HAMP (11756126_x_at) / Fold change /veh HAMP (11756126_x_at) / RFU RNFT2 (11725882_a_at) / Fold change /veh RNFT2 (11725882_a_at) / RFU NR4A2 (11747474_a_at) / Fold change /veh NR4A2 (11747474_a_at) / RFU ABCC12 (11746883_a_at) / Fold change /veh ABCC12 (11746883_a_at) / RFU TMEM136 (11760407_x_at) / Fold change /veh TMEM136 (11760407_x_at) / RFU CLDN22 /// WWC2 (11732394_at) / Fold change /veh CLDN22 /// WWC2 (11732394_at) / RFU HLA-DPB1 (11760878_x_at) / Fold change /veh HLA-DPB1 (11760878_x_at) / RFU SPINT1 (11716480_a_at) / Fold change /veh SPINT1 (11716480_a_at) / RFU GAP43 (11754022_s_at) / Fold change /veh GAP43 (11754022_s_at) / RFU A4GNT (11735810_at) / Fold change /veh A4GNT (11735810_at) / RFU PRB3 (11715151_x_at) / Fold change /veh PRB3 (11715151_x_at) / RFU TUBB4B (11761932_at) / Fold change /veh TUBB4B (11761932_at) / RFU CAPN14 (11732068_a_at) / Fold change /veh CAPN14 (11732068_a_at) / RFU TMCC2 (11721928_a_at) / Fold change /veh TMCC2 (11721928_a_at) / RFU IRGQ (11745062_a_at) / Fold change /veh IRGQ (11745062_a_at) / RFU FAM174B (11720279_a_at) / Fold change /veh FAM174B (11720279_a_at) / RFU TMPRSS4 (11748680_a_at) / Fold change /veh TMPRSS4 (11748680_a_at) / RFU FAM212B (11763350_a_at) / Fold change /veh FAM212B (11763350_a_at) / RFU PLEKHG5 (11743358_a_at) / Fold change /veh PLEKHG5 (11743358_a_at) / RFU ZSCAN30 (11745921_a_at) / Fold change /veh ZSCAN30 (11745921_a_at) / RFU CMKLR1 (11741424_a_at) / Fold change /veh CMKLR1 (11741424_a_at) / RFU LOC101060620 /// MAPK8IP1 (11723275_at) / Fold change /veh LOC101060620 /// MAPK8IP1 (11723275_at) / RFU SPTSSB (11747773_x_at) / Fold change /veh SPTSSB (11747773_x_at) / RFU PRSS12 (11739890_at) / Fold change /veh PRSS12 (11739890_at) / RFU BIN1 (11741810_x_at) / Fold change /veh BIN1 (11741810_x_at) / RFU WNT11 (11732464_a_at) / Fold change /veh WNT11 (11732464_a_at) / RFU C10orf10 (11716521_a_at) / Fold change /veh C10orf10 (11716521_a_at) / RFU C5orf56 (11738089_at) / Fold change /veh C5orf56 (11738089_at) / RFU CYB561 (11721691_x_at) / Fold change /veh CYB561 (11721691_x_at) / RFU ANKRD19P (11752326_a_at) / Fold change /veh ANKRD19P (11752326_a_at) / RFU OR2T12 /// OR2T33 /// OR2T8 (11738714_s_at) / Fold change /veh OR2T12 /// OR2T33 /// OR2T8 (11738714_s_at) / RFU VCAN (11748164_a_at) / Fold change /veh VCAN (11748164_a_at) / RFU JSRP1 (11732532_at) / Fold change /veh JSRP1 (11732532_at) / RFU KRTAP10-11 (11738290_x_at) / Fold change /veh KRTAP10-11 (11738290_x_at) / RFU MYO3A (11730013_a_at) / Fold change /veh MYO3A (11730013_a_at) / RFU EBF3 (11725865_a_at) / Fold change /veh EBF3 (11725865_a_at) / RFU CAMK2N1 (11719241_x_at) / Fold change /veh CAMK2N1 (11719241_x_at) / RFU C5orf56 (11738088_a_at) / Fold change /veh C5orf56 (11738088_a_at) / RFU OLFML3 (11715873_a_at) / Fold change /veh OLFML3 (11715873_a_at) / RFU LOC100653217 /// NTM (11731650_a_at) / Fold change /veh LOC100653217 /// NTM (11731650_a_at) / RFU MAPK11 (11762145_a_at) / Fold change /veh MAPK11 (11762145_a_at) / RFU FIZ1 (11724087_x_at) / Fold change /veh FIZ1 (11724087_x_at) / RFU OASL (11726364_x_at) / Fold change /veh OASL (11726364_x_at) / RFU SOX15 (11748057_x_at) / Fold change /veh SOX15 (11748057_x_at) / RFU CD79A (11719716_a_at) / Fold change /veh CD79A (11719716_a_at) / RFU HIST1H1D (11736915_at) / Fold change /veh HIST1H1D (11736915_at) / RFU CASKIN2 (11723855_a_at) / Fold change /veh CASKIN2 (11723855_a_at) / RFU LOC730098 (11760151_x_at) / Fold change /veh LOC730098 (11760151_x_at) / RFU OR4N2 (11742367_at) / Fold change /veh OR4N2 (11742367_at) / RFU PRRT2 (11749266_a_at) / Fold change /veh PRRT2 (11749266_a_at) / RFU SNX32 (11753110_a_at) / Fold change /veh SNX32 (11753110_a_at) / RFU CDHR5 (11726645_a_at) / Fold change /veh CDHR5 (11726645_a_at) / RFU RCAN1 (11760418_a_at) / Fold change /veh RCAN1 (11760418_a_at) / RFU FAM167A (11723789_a_at) / Fold change /veh FAM167A (11723789_a_at) / RFU FAM26E (11764081_at) / Fold change /veh FAM26E (11764081_at) / RFU ISYNA1 (11749810_s_at) / Fold change /veh ISYNA1 (11749810_s_at) / RFU ACY1 (11761880_at) / Fold change /veh ACY1 (11761880_at) / RFU 11764098_at / Fold change /veh 11764098_at / RFU SAMD14 (11745864_x_at) / Fold change /veh SAMD14 (11745864_x_at) / RFU NPB (11741838_a_at) / Fold change /veh NPB (11741838_a_at) / RFU TMPRSS6 (11731388_a_at) / Fold change /veh TMPRSS6 (11731388_a_at) / RFU KRTAP10-2 (11738614_at) / Fold change /veh KRTAP10-2 (11738614_at) / RFU ARHGAP8 /// PRR5-ARHGAP8 (11727945_x_at) / Fold change /veh ARHGAP8 /// PRR5-ARHGAP8 (11727945_x_at) / RFU KRTAP5-7 /// NADSYN1 (11734609_at) / Fold change /veh KRTAP5-7 /// NADSYN1 (11734609_at) / RFU RASL12 (11751679_a_at) / Fold change /veh RASL12 (11751679_a_at) / RFU CDKN2B (11736163_a_at) / Fold change /veh CDKN2B (11736163_a_at) / RFU PRF1 (11729649_at) / Fold change /veh PRF1 (11729649_at) / RFU, ZNF638 /// ZNF638-IT1 / Fold change vs veh, ZNF638 /// ZNF638-IT1 / RFU, PANK3 / Fold change vs veh, PANK3 / RFU, SH3YL1 / Fold change vs veh, SH3YL1 / RFU, ZEB2 / Fold change vs veh, ZEB2 / RFU, NRIP1 / Fold change vs veh, NRIP1 / RFU, PTTG1IP / Fold change vs veh, PTTG1IP / RFU, CAPN2 / Fold change vs veh, CAPN2 / RFU, MED14 / Fold change vs veh, MED14 / RFU, SNORA58 / Fold change vs veh, SNORA58 / RFU, C1orf63 / Fold change vs veh, C1orf63 / RFU, LRRFIP1 / Fold change vs veh, LRRFIP1 / RFU, NDUFAF7 / Fold change vs veh, NDUFAF7 / RFU, SLC12A2 / Fold change vs veh, SLC12A2 / RFU, IBTK / Fold change vs veh, IBTK / RFU, ESF1 / Fold change vs veh, ESF1 / Fold change vs veh, TMEM50B / RFU, TAOK1 / Fold change vs veh, TAOK1 / RFU, ACBD3 / Fold change vs veh, ACBD3 / RFU, TMA16 / Fold change vs veh, TMA16 / RFU, RWDD3 / Fold change vs veh, RWDD3 / RFU, BCAT1 / Fold change vs veh, BCAT1 / RFU, EDEM3 / Fold change vs veh, EDEM3 / RFU, TMEM33 / Fold change vs veh, TMEM33 / RFU, WDR75 / Fold change vs veh, WDR75 / RFU, AHCTF1 / Fold change vs veh, AHCTF1 / RFU, TFRC / Fold change vs veh, TFRC / RFU, ZDHHC17 / Fold change vs veh, ZDHHC17 / RFU, NOM1 / Fold change vs veh, NOM1 / RFU, ARL8B / Fold change vs veh, ARL8B / RFU, ZBTB11 / Fold change vs veh, ZBTB11 / RFU, TAMM41 / Fold change vs veh, TAMM41 / RFU, KIAA1704 /// LOC100996395 / Fold change vs veh, KIAA1704 /// LOC100996395 / RFU, ING1 / Fold change vs veh, ING1 / RFU, TRMT61B / Fold change vs veh, TRMT61B / RFU, FUBP3 / Fold change vs veh, FUBP3 / RFU, TP53 / Fold change vs veh, TP53 / RFU, TNKS2 / Fold change vs veh, TNKS2 / RFU, ZFP14 / Fold change vs veh, ZFP14 / RFU, ACTR2 / Fold change vs veh, ACTR2 / RFU, PPP3R1 / Fold change vs veh, PPP3R1 / RFU, PIK3R1 / Fold change vs veh, PIK3R1 / RFU, HNRNPA1 / Fold change vs veh, HNRNPA1 / RFU, RNF170 / Fold change vs veh, RNF170 / RFU, ZNF28 / Fold change vs veh, ZNF28 / RFU, RNGTT / Fold change vs veh, RNGTT / RFU, OGT / Fold change vs veh, OGT / RFU, BRD1 / Fold change vs veh, BRD1 / RFU, MARS / Fold change vs veh, MARS / RFU, ZNF655 / Fold change vs veh, ZNF655 / RFU, FAHD1 / Fold change vs veh, FAHD1 / RFU, BDP1 / Fold change vs veh, BDP1 / RFU, LRRCC1 / Fold change vs veh, LRRCC1 / RFU, ARID1A / Fold change vs veh, ARID1A / RFU, ZNF146 / Fold change vs veh, ZNF146 / RFU, ZNF330 / Fold change vs veh, ZNF330 / RFU, GPN3 / Fold change vs veh, GPN3 / RFU, C9orf123 / Fold change vs veh, C9orf123 / RFU, N4BP2L2 / Fold change vs veh, N4BP2L2 / RFU, ARFIP1 / Fold change vs veh, ARFIP1 / RFU, FAM179B / Fold change vs veh, FAM179B / RFU, BCL10 / Fold change vs veh, BCL10 / RFU, UHRF1BP1L / Fold change vs veh, UHRF1BP1L / RFU, BET1 / Fold change vs veh, BET1 / RFU, CNOT2 / Fold change vs veh, CNOT2 / RFU, ZNF268 / Fold change vs veh, ZNF268 / Fold change vs veh, ZNF507 / RFU, DGCR2 / Fold change vs veh, DGCR2 / RFU, WDSUB1 / Fold change vs veh, WDSUB1 / Fold change vs veh, HSP90B1 /// MIR3652 / RFU, ADSS / Fold change vs veh, ADSS / RFU, GK / Fold change vs veh, GK / RFU, ZNF148 / Fold change vs veh, ZNF148 / RFU, TAF9 / Fold change vs veh, TAF9 / RFU, SLC1A5 / Fold change vs veh, SLC1A5 / RFU, SLMO2 / Fold change vs veh, SLMO2 / RFU, ABCC4 / Fold change vs veh, ABCC4 / RFU, LOC101060439 /// RAP1B / Fold change vs veh, LOC101060439 /// RAP1B / RFU, RFX7 / Fold change vs veh, RFX7 / RFU, GTPBP10 / Fold change vs veh, GTPBP10 / RFU, CNEP1R1 / Fold change vs veh, CNEP1R1 / RFU, BIVM-ERCC5 /// ERCC5 / Fold change vs veh, BIVM-ERCC5 /// ERCC5 / RFU, ILF3 / Fold change vs veh, ILF3 / RFU 11762660_at / Fold change /veh 11762660_at / RFU VCAN (11757783_s_at) / Fold change /veh VCAN (11757783_s_at) / RFU DDX43 (11728927_at) / Fold change /veh DDX43 (11728927_at) / RFU KRT8 (11758188_x_at) / Fold change /veh KRT8 (11758188_x_at) / RFU NKD1 (11759106_at) / Fold change /veh NKD1 (11759106_at) / RFU SRD5A1 (11742802_a_at) / Fold change /veh SRD5A1 (11742802_a_at) / RFU TPSAB1 /// TPSB2 (11721975_s_at) / Fold change /veh TPSAB1 /// TPSB2 (11721975_s_at) / RFU GSTM3 (11746129_a_at) / Fold change /veh GSTM3 (11746129_a_at) / RFU IL23R (11737362_x_at) / Fold change /veh IL23R (11737362_x_at) / RFU TMEM51 (11727254_a_at) / Fold change /veh TMEM51 (11727254_a_at) / RFU PIWIL2 (11732686_x_at) / Fold change /veh PIWIL2 (11732686_x_at) / RFU ORM1 (11744905_x_at) / Fold change /veh ORM1 (11744905_x_at) / RFU CCDC152 (11743942_at) / Fold change /veh CCDC152 (11743942_at) / RFU ECM1 (11717891_a_at) / Fold change /veh ECM1 (11717891_a_at) / RFU IL23R (11748794_a_at) / Fold change /veh IL23R (11748794_a_at) / RFU TNFAIP8L3 (11732012_x_at) / Fold change /veh TNFAIP8L3 (11732012_x_at) / RFU MBOAT4 (11741988_at) / Fold change /veh MBOAT4 (11741988_at) / RFU 11764193_at / Fold change /veh 11764193_at / RFU TMEM53 (11763286_at) / Fold change /veh TMEM53 (11763286_at) / RFU MAGEB2 (11727129_at) / Fold change /veh MAGEB2 (11727129_at) / RFU TMEM200A (11744735_a_at) / Fold change /veh TMEM200A (11744735_a_at) / RFU CCDC152 (11751479_a_at) / Fold change /veh CCDC152 (11751479_a_at) / RFU FAM211A (11726209_a_at) / Fold change /veh FAM211A (11726209_a_at) / RFU RGS16 (11746705_a_at) / Fold change /veh RGS16 (11746705_a_at) / RFU VCAN (11755009_s_at) / Fold change /veh VCAN (11755009_s_at) / RFU RHOB (11743442_s_at) / Fold change /veh RHOB (11743442_s_at) / RFU RGS16 (11720943_a_at) / Fold change /veh RGS16 (11720943_a_at) / RFU RGS16 (11720944_at) / Fold change /veh RGS16 (11720944_at) / RFU, VPS4B / Fold change vs veh, VPS4B / RFU, CREB1 / Fold change vs veh, CREB1 / RFU, DNAJC13 / Fold change vs veh, DNAJC13 / RFU, GNAQ / Fold change vs veh, GNAQ / RFU, CDK5R1 / Fold change vs veh, CDK5R1 / RFU, ZRANB3 / Fold change vs veh, ZRANB3 / RFU, CUL4A / Fold change vs veh, CUL4A / RFU, CCNY / Fold change vs veh, CCNY / RFU, UFL1 / Fold change vs veh, UFL1 / RFU, COG3 / Fold change vs veh, COG3 / RFU, DIAPH2 / Fold change vs veh, DIAPH2 / RFU, SKA2 / Fold change vs veh, SKA2 / RFU, AFF3 / Fold change vs veh, AFF3 / RFU, LMF1 / Fold change vs veh, LMF1 / RFU, IPO11 / Fold change vs veh, IPO11 / RFU, DFFB / Fold change vs veh, DFFB / RFU, FOXP1 / Fold change vs veh, FOXP1 / RFU, CARD8 / Fold change vs veh, CARD8 / RFU, STRN3 / Fold change vs veh, STRN3 / RFU, ADK / Fold change vs veh, ADK / RFU, RASSF2 / Fold change vs veh, RASSF2 / RFU, WIPF1 / Fold change vs veh, WIPF1 / RFU, LARP1B / Fold change vs veh, LARP1B / RFU, RASA1 / Fold change vs veh, RASA1 / RFU, RB1 / Fold change vs veh, RB1 / RFU, PPFIA1 / Fold change vs veh, PPFIA1 / RFU, MAT2A / Fold change vs veh, MAT2A / RFU, CCT5 / Fold change vs veh, CCT5 / RFU, WDR92 / Fold change vs veh, WDR92 / RFU, CUX1 / Fold change vs veh, CUX1 / RFU, TTC7A / Fold change vs veh, TTC7A / RFU, TMEM135 / Fold change vs veh, TMEM135 / RFU, DEPTOR / Fold change vs veh, DEPTOR / RFU, CPM / Fold change vs veh, CPM / RFU, DNAJB6 / Fold change vs veh, DNAJB6 / RFU, CACNA2D3 / Fold change vs veh, CACNA2D3 / RFU, DTX4 / Fold change vs veh, DTX4 / RFU, TFCP2 / Fold change vs veh, TFCP2 / RFU, GMCL1 /// GMCL1P1 / Fold change vs veh, GMCL1 /// GMCL1P1 / RFU, AEBP2 / Fold change vs veh, AEBP2 / RFU, SNHG1 /// SNORD22 /// SNORD25 /// SNORD26 /// SNORD27 /// SNORD28 /// SNORD29 /// SNORD31 / Fold change vs veh, SNHG1 /// SNORD22 /// SNORD25 /// SNORD26 /// SNORD27 /// SNORD28 /// SNORD29 /// SNORD31 / Fold change (Aza/veh), C12orf56 (ProbeSet 11735607_a_at) / Fold change (ACY-1035/veh), C12orf56 (ProbeSet 11735607_a_at) / Fold change (Aza/veh), FGFR1OP (ProbeSet 11751329_s_at) / Fold change (ACY-1035/veh), FGFR1OP (ProbeSet 11751329_s_at) / Fold change (Aza/veh), VPS36 (ProbeSet 11739960_a_at) / Fold change (ACY-1035/veh), VPS36 (ProbeSet 11739960_a_at) / RFU SYPL1 (11715823_x_at) / Fold change /veh SYPL1 (11715823_x_at) / RFU IGFBP7 (11715501_s_at) / Fold change /veh IGFBP7 (11715501_s_at) / RFU REEP3 (11722064_at) / Fold change /veh REEP3 (11722064_at) / RFU IGLL1 (11728026_x_at) / Fold change /veh IGLL1 (11728026_x_at): dose or concentration left out as unconfirmed. The assay is classed as cell-based, human.

With `Nc1ccc(-c2cccs2)cc1NC(=O)c1ccc2c(c1)cc(C1CC1)n2CCN1CCOCC1` [ACY-1035], the “RFU RHOB (11743442_s_at)” value turned out to be 104.18 RFU.
